Source: PubChem BioAssay (NCI)
Several values for one entry are separate records, joined by “and”; a condition that tells them apart may be missing. Equal values may be shown once.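 Grown in 96-well plates, cells were treated for 48 hours with each compound at five concentrations. Insufficient inhibition: endpoint recorded as highest concentration tested. Abbreviation: GI50, concentration required for 50% inhibition of growth. Definition used: TGI = concentration required for complete inhibition of growth.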

Key:
Test in all cases: NCI tumour cell line growth inhibition, 48 h
RXF 393 renal = test system: RXF 393 renal
UACC-257 melanoma = test system: UACC-257 melanoma
OVCAR-5 ovarian = test system: OVCAR-5 ovarian
HCT-116 colon = test system: HCT-116 colon
KM12 colon = test system: KM12 colon
SNB-75 CNS = test system: SNB-75 CNS
SF-295 CNS = test system: SF-295 CNS
SK-MEL-5 melanoma = test system: SK-MEL-5 melanoma
MDA-MB-231 breast = test system: MDA-MB-231 breast
TK-10 renal = test system: TK-10 renal

| SMILES | TGI (RXF 393 renal) | TGI (UACC-257 melanoma) | TGI (OVCAR-5 ovarian) | TGI (HCT-116 colon) | TGI (KM12 colon) | TGI (SNB-75 CNS) | TGI (SF-295 CNS) | TGI (SK-MEL-5 melanoma) | TGI (MDA-MB-231 breast) | TGI (TK-10 renal) | GI50 (RXF 393 renal) | GI50 (UACC-257 melanoma) | GI50 (OVCAR-5 ovarian) | GI50 (HCT-116 colon) | GI50 (KM12 colon) | GI50 (SNB-75 CNS) | GI50 (SF-295 CNS) | GI50 (SK-MEL-5 melanoma) | GI50 (MDA-MB-231 breast) | GI50 (TK-10 renal) |
| --- | --- | --- | --- | --- | --- | --- | --- | --- | --- | --- | --- | --- | --- | --- | --- | --- | --- | --- | --- | --- |
| O=C(c1c(F)c(F)c(F)c(F)c1F)c1c(F)c(F)c(F)c(F)c1F | 2.94 µM | 4.65 µM | 3.65 µM | 2.96 µM | 2.04 µM | 3.48 µM | 6.44 µM | 8.24 µM | 3.46 µM | 2.47 µM | – | – | – | – | – | – | – | – | – | – |
| Cc1ccc(OP(=O)(Oc2ccc(C)cc2)N2C=Cc3ccccc3C2C#N)cc1 (stereo not given) | > 100 µM | > 100 µM | > 100 µM | > 100 µM | > 100 µM | > 100 µM | > 100 µM | > 100 µM | > 100 µM | > 100 µM | – | – | – | – | – | – | – | – | – | – |
| COc1cc(-n2ccnc2-c2ccc3ccccc3c2)cc(OC)c1OC | 0.749 µM | > 100 µM | > 93.6 µM | 15.3 µM | 18.9 µM | 36.8 µM | 42.5 µM | 12.3 µM | 44.1 µM | 45.2 µM | 0.17 µM | 20 µM | 0.408 µM | 0.0382 µM | < 0.0198 µM | 0.123 µM | 0.0363 µM | < 0.0198 µM | 0.571 µM | 0.936 µM |
| O=C1c2c(c(=O)[nH]c3ccccc23)[C@H](c2ccccc2)[C@@H]2CCCN12 | 4.34 µM | 53 µM | 9.59 µM | > 100 µM | 13.6 µM | 16.9 µM | 47.8 µM | 5.07 µM | 27.5 µM | > 100 µM | 1.88 µM | 5.13 µM | 2.7 µM | 2.54 µM | 3.08 µM | 2.64 µM | 8.72 µM | 2.01 µM | 3.06 µM | 20.5 µM |
| O=C(O)c1cccc(S(=O)(=O)NCCO)c1 | > 100 µM | > 100 µM | > 100 µM | > 100 µM | > 100 µM | > 100 µM | > 100 µM | > 100 µM | > 100 µM | > 100 µM | – | – | – | – | – | – | – | – | – | – |
| CN1C(=O)CCC(N2C(=O)c3cccc(NCCOCCOCCNC(=O)c4cc5c(o4)C(=O)c4ccccc4C5=O)c3C2=O)C1=O (stereo not given) | 3.79 µM | 3.11 µM | 3.17 µM | 6.21 µM | 12.6 µM | 4.72 µM | 3.08 µM | 0.652 µM | 8.77 µM | 7.55 µM | 1.82 µM | 1.59 µM | 1.76 µM | 2.17 µM | 3.35 µM | 2.74 µM | 1.66 µM | 0.242 µM | 2.64 µM | 3.5 µM |
| C(=N\Nc1ncc(-c2cc3cc4c(cc3o2)OCO4)s1)/c1ccco1 | 5.13 µM | 23.2 µM | 8.67 µM | 4.03 µM | 5.14 µM | 11.4 µM | 11.5 µM | 4.6 µM | 3.83 µM | 24.7 µM | 1.8 µM | 3.83 µM | 2.71 µM | 1.57 µM | 1.85 µM | 1.86 µM | 2.78 µM | 2.07 µM | 1.64 µM | 3.38 µM |
| CC1=C([Te]c2ccccc2)C(=O)c2ccccc2C1=O | 4.63 µM | 5.92 µM | 0.86 µM | 0.901 µM | 1.21 µM | 0.898 µM | 0.697 µM | 2.03 µM | 0.573 µM | 4.05 µM | 1.14 µM | 2.23 µM | 0.283 µM | 0.284 µM | 0.337 µM | 0.207 µM | 0.24 µM | 0.799 µM | 0.227 µM | 1.71 µM |
| CCOC(=O)c1[nH]c2cc(Cl)ccc2c1[C@@H](C(=O)NC(C)(C)C)N(CC)C(=O)CCCCC#Cc1cccc2c1CN(C1CCC(=O)NC1=O)C2=O (stereo not given in full) | 3.91 µM | > 87.5 µM | 40.2 µM | 18.5 µM | > 100 µM | 4.81 µM | 3.88 µM | 2.56 µM | 1.68 µM | 16.1 µM | 0.113 µM | 3.05 µM | 2.08 µM | 2.55 µM | 0.901 µM | < 0.01 µM | 1.14 µM | 1.22 µM | < 0.01 µM | 2.65 µM |
| O=C1Nc2c(Cl)cc(Cl)cc2/C1=N/N=C/c1ccco1 | > 100 µM | > 100 µM | > 100 µM | > 100 µM | > 100 µM | 42.7 µM | > 100 µM | > 100 µM | 58 µM | > 100 µM | – | – | – | – | – | – | – | – | – | – |
| COc1cc2nc(Nc3cccc(Cl)c3)nc(N)c2cc1OC | 31.3 µM | 4.48 µM | 35.4 µM | 6.35 µM | 15.7 µM | 32.3 µM | > 36.3 µM | 11.2 µM | 14.5 µM | 37.8 µM | 16.9 µM | 2.11 µM | 17.2 µM | 2.34 µM | 4.07 µM | 17.4 µM | 4.37 µM | 3.27 µM | 4.28 µM | 14.2 µM |
| C=C(C)[C@@H]1CC[C@]2(CO)CC[C@]3(C)[C@H](CC[C@@H]4[C@@]5(C)CCCNC(C)(C)[C@@H]5CC[C@]43C)[C@@H]12 | 3.18 µM | 3.73 µM | 2.89 µM | 2.63 µM | 3.24 µM | 2.91 µM | 3.13 µM | 2.7 µM | 3.21 µM | 3.5 µM | 1.68 µM | 1.95 µM | 1.51 µM | 1.29 µM | 1.73 µM | 1.54 µM | 1.66 µM | 1.38 µM | 1.77 µM | 1.76 µM |
| Cn1ncc(Cl)c1-c1cc(C(=O)N[C@H](CN)Cc2cccc(F)c2)sc1Cl | 1.72 µM and 0.896 µM | 3.71 µM and 9.91 µM | > 10 µM and 17.2 µM | > 5.17 µM and 13.6 µM | 3.51 µM and 8.31 µM | 1.48 µM and 2.56 µM | 2.95 µM and 7.01 µM | 3.99 µM and 8.3 µM | > 8.32 µM and 8.33 µM | 5.76 µM and 14.3 µM | 0.128 µM and 0.145 µM | 1.44 µM and 2.88 µM | 2.2 µM and 2.69 µM | 1.27 µM and 2.84 µM | 0.467 µM and 0.835 µM | 0.139 µM and 0.131 µM | 0.255 µM and 0.486 µM | 1.96 µM and 3.64 µM | 2.25 µM and 2.4 µM | 0.531 µM and 1.73 µM |
| CCSC[C@@H]1C[C@](O)(c2ccc(Cl)cc2)[C@@H](c2ccc(Cl)cc2)O1 | 38.5 µM | 30.1 µM | 34.3 µM | 25.1 µM | 30.9 µM | 32.4 µM | 35.4 µM | 28.7 µM | 35.4 µM | 36.3 µM | 23.2 µM | 15.1 µM | 18.2 µM | 12.6 µM | 15.4 µM | 16.3 µM | 18.9 µM | 15.3 µM | 18.2 µM | 17.8 µM |
